pIC50: −log10 of the molar value.

The target of one data set is T1, hMCH-1R (Homo sapiens, UniProt Q99705).
T1 construct: expressed in transfected cells; host or cells: CHO/Galpha16 cells, stably transfected; membrane preparation
Put plainly: MCH-1 receptor binding test (125I-MCH binding to membranes of hMCH-1R transfected CHO/Galpha16 cells). Particulars: 100 pM 125I-MCH, membranes of CHO/Galpha16 cells with hMCH-1R. As for the experimental part:
Membranes from CHO/Galpha16 cells stably transfected with human hMCH-1R are resuspended using a syringe (needle 0.6×25 mm) and diluted in test buffer (50 mM HEPES, 10 mM MgCl2, 2 mM EGTA, pH 7.00; 0.1% bovine serum albumin (protease-free), 0.021% bacitracin, 1 μg/ml aprotinin, 1 μg/ml leupeptin and 1 μM phosphoramidone) to a concentration of 5 to 15 μg/ml. […] After the incubation the reaction is filtered using a cell harvester through 0.5% PEI treated glass fibre filters (GF/B, Unifilter Packard). The membrane-bound radioactivity retained on the filter is then determined after the addition of scintillator substance (Packard Microscint 20) in a measuring device (TopCount of Packard).
The non-specific binding is defined as bound radioactivity in the presence of 1 micromolar MCH during the incubation period.
The analysis of the concentration binding curve is carried out on the assumption of one receptor binding site.

T1 sequence (Q99705 whole entry): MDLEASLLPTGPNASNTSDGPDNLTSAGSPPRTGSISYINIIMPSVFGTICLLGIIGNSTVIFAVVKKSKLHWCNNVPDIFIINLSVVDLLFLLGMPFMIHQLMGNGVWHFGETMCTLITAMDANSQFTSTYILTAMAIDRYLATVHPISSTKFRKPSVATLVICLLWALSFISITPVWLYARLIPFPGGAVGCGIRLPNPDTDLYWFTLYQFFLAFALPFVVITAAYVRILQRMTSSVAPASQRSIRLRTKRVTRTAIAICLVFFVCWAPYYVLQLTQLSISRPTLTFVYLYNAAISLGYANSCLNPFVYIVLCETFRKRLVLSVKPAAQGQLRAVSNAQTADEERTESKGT

A word on the melting point: it is the temperature, or range, at which the solid turns liquid. Consider `O=c1c2ccc(-c3ccc(Cl)cc3)cc2ncn1CCc1ccc(CN2CCC(O)(c3ccccc3)CC2)cc1`, for which the melting point fell in the range of 204 to 205 °C.
Still for that read-out and setting: then `O=c1c2ccc(-c3ccc(Cl)cc3)cc2nnn1CCc1ccc(CN2CCC(O)(c3ccccc3)CC2)cc1`, with 265 to 266 °C; and `O=c1c2ccc(-c3ccc(Cl)cc3)cc2ncn1CCc1ccc(CN2CCCC2)cc1` [Example 1.1, 7-(4-chloro-phenyl)-3-[2-(4-pyrrolidin-1-ylmethyl-phenyl)-ethyl]-3H-quinazolin-4-one], with 178 to 179 °C; and `Cc1ccc(-c2ccc3c(=O)n(CCc4ccc(CN5CCCC5)cc4)cnc3c2)cc1` [Example 1.2, 3-[2-(4-Pyrrolidin-1-ylmethyl-phenyl)-ethyl]-7-p-tolyl-3H-quinazolin-4-one], with 157 to 158 °C.
Still for that read-out and setting: then `O=c1c2ccc(-c3ccc(C(F)(F)F)cc3)cc2ncn1CCc1ccc(CN2CCCC2)cc1` [Example 1.3, 3-[2-(4-pyrrolidin-1-ylmethyl-phenyl)-ethyl]-7-(4-trifluormethyl-phenyl)-3H-quinazolin-4-one], with 179 to 181 °C.
Same read-out and setting: then `COc1ccc(-c2ccc3c(=O)n(CCc4ccc(CN5CCCC5)cc4)cnc3c2)cc1` [Example 1.4, 7-(4-Methoxy-phenyl)-3-[2-(4-pyrrolidin-1-ylmethyl-phenyl)-ethyl]-3H-quinazolin-4-one], with 143 to 144 °C; and `O=c1c2ccc(-c3ccc(Cl)c(Cl)c3)cc2ncn1CCc1ccc(CN2CCCC2)cc1` [Example 1.5, 7-(3,4-dichloro-phenyl)-3-[2-(4-pyrrolidin-1-ylmethyl-phenyl)-ethyl]-3H-quinazolin-4-one], with 148 to 149 °C.
Turning to `O=c1c2ccc(-c3ccc(F)cc3)cc2ncn1CCc1ccc(CN2CCCC2)cc1` [Example 1.7, 7-(4-fluoro-phenyl)-3-[2-(4-pyrrolidin-1-ylmethyl-phenyl)-ethyl]-3H-quinazolin-4-one], the melting point fell in the range of 160 to 161 °C.
The same measure, in the same setting: then `CCc1ccc(-c2ccc3c(=O)n(CCc4ccc(CN5CCCC5)cc4)cnc3c2)cc1` [Example 1.8, 7-(4-Ethyl-phenyl)-3-[2-(4-pyrrolidin-1-ylmethyl-phenyl)-ethyl]-3H-quinazolin-4-one], with 165 to 166 °C; and `Cc1nc2cc(-c3ccc(Cl)cc3)ccc2c(=O)n1CCc1ccc(CN2CCCC2)cc1` [Example 1.11, 7-(4-chloro-phenyl)-2-methyl-3-[2-(4-pyrrolidin-1-ylmethyl-phenyl)-ethyl]-3H-quinazolin-4-one], with 160 to 163 °C; and `O=c1[nH]c2cc(-c3ccc(Cl)cc3)ccc2c(=O)n1CCc1ccc(CN2CCCC2)cc1` [Example 1.12, 7-(4-chloro-phenyl)-3-[2-(4-pyrrolidin-1-ylmethyl-phenyl)-ethyl]-1H-quinazolin-2,4-dione], with 274 to 276 °C.
The same measure, in the same setting: then `COC[C@@H]1CCCN1Cc1ccc(CCn2cnc3cc(-c4ccc(Cl)cc4)ccc3c2=O)cc1` [Example 1.13, 7-(4-chloro-phenyl)-3-{2-[4-((S)-2-methoxymethyl-pyrrolidin-1-ylmethyl)-phenyl]-ethyl}-3H-quinazolin-4-one], with 133 to 135 °C.
In general, pIC50 refers to −log10 of the IC50, conventionally taken in molar units. Low values mean a high IC50, high ones a low IC50. Compound `CN(C)Cc1ccc(CCn2cnc3cc(-c4ccc(Cl)cc4)ccc3c2=O)cc1` [Example 1.14, 7-(4-chloro-phenyl)-3-[2-(4-dimethylaminomethyl-phenyl)-ethyl]-3H-quinazolin-4-one] had a melting point of 183 °C. In addition, the pIC50 on hMCH-1R is 8.68.
The compound `O=c1c2ccc(-c3ccc(Cl)cc3)cc2ncn1CCc1ccc(CN2CCCCC2)cc1` [Example 1.15, 7-(4-chloro-phenyl)-3-[2-(4-piperidin-1-ylmethyl-phenyl)-ethyl]-3H-quinazolin-4-one] showed a melting point of 169 to 170 °C.
Still for that read-out and setting: then `O=c1c2ccc(-c3ccc(Cl)cc3)cc2ncn1CCc1ccc(CN2CCOCC2)cc1` [Example 1.16, 7-(4-chloro-phenyl)-3-[2-(4-morpholin-4-ylmethyl-phenyl)-ethyl]-3H-quinazolin-4-one], with 169 to 170 °C.
Same read-out and setting: then `CN1CCN(c2ccc(CCn3cnc4cc(-c5ccc(Cl)cc5)ccc4c3=O)cn2)CC1` [Example 1.17, 7-(4-chloro-phenyl)-3-{2-[6-(4-methyl-piperazin-1-yl)-pyridin-3-yl]-ethyl}-3H-quinazolin-4-one], with 263 to 264 °C; and `O=c1c2ccc(-c3ccc(Cl)cc3)cc2nnn1CCc1ccc(CN2CCCC2)cc1` [Example 1.18, 7-(4-chloro-phenyl)-3-[2-(4-pyrrolidin-1-ylmethyl-phenyl)-ethyl]-3H-benzo[d][1,2,3]triazin-4-one], with 151 to 152 °C.
In the case of `O=c1c2ccc(-c3ccc(Cl)cc3)cc2nnn1Cc1ccc(CN2CCCC2)cc1` [Example 1.19, 7-(4-chloro-phenyl)-3-(4-pyrrolidin-1-ylmethyl-benzyl)-3H-benzo[d][1,2,3]triazin-4-one], the melting point fell in the range of 147 to 148 °C.
For the compound `O=c1c2ccc(-c3ccc(Cl)cc3)cc2ncn1CCc1ccc(CN2CCC(c3ccccc3)CC2)cc1` [Example 1.21, 7-(4-chloro-phenyl)-3-{2-[4-(4-phenyl-piperidin-1-ylmethyl)-phenyl]-ethyl}-3H-quinazolin-4-one], the melting point was in the range of 178 to 179 °C.
Compound `O=c1c2ccc(-c3ccc(Cl)cc3)cc2ncn1CCc1ccc(CN2CCN(c3ccccc3)CC2)cc1` [Example 1.22, 7-(4-chloro-phenyl)-3-{2-[4-(4-phenyl-piperazin-1-ylmethyl)-phenyl]-ethyl}-3H-quinazolin-4-one] gave a melting point of 199 to 200 °C.
Same read-out and setting: then `O=c1c2ccc(-c3ccc(Cl)cc3)cc2ncn1CCc1ccc(CN2CC=C(c3ccccc3)CC2)cc1` [Example 1.24, 7-(4-chloro-phenyl)-3-{2-[4-(4-phenyl-3.6-dihydro-2H-piperidin-1-ylmethyl)-phenyl]-ethyl}-3H-quinazolin-4-one], with 166 to 167 °C.
In the case of `O=c1c2ccc(-c3ccc(Cl)cc3)cc2ncn1CCc1ccc(CN2CCC3(CCCCC3)CC2)cc1` [Example 1.25, 7-(4-chloro-phenyl)-3-{2-[4-(3-Aza-spiro[5.5]undec-3-ylmethyl)-phenyl]-ethyl}-3H-quinazolin-4-one], the melting point was in the range of 184 to 185 °C.
The same measure, in the same setting: then `O=c1c2ccc(-c3ccc(Cl)cc3)cc2ncn1CCc1ccc(CN2CCC(Oc3ccccn3)CC2)cc1` [Example 1.26, 7-(4-chloro-phenyl)-3-(2-{4-[4-(pyridin-2-yloxy)-piperidin-1-ylmethyl]-phenyl}-ethyl)-3H-quinazolin-4-one], with 154 to 158 °C.
Same read-out and setting: then `O=c1c2ccc(-c3ccc(Cl)cc3)cc2ncn1CCc1ccc(CN2CCC(Nc3ccccn3)CC2)cc1` [Example 1.27, 7-(4-chloro-phenyl)-3-(2-{4-[4-(pyridin-2-ylamino)-piperidin-1-ylmethyl]-phenyl}-ethyl)-3H-quinazolin-4-one], with 164 to 166 °C; and `O=c1c2ccc(-c3ccc(Cl)cc3)cc2nnn1CCc1ccc(CN2CCC(c3ccccc3)CC2)cc1` [Example 1.28, 7-(4-chloro-phenyl)-3-{2-[4-(4-phenyl-piperidin-1-ylmethyl)-phenyl]-ethyl}-3H-benzo[d][1,2,3]triazin-4-one], with 183 to 184 °C.
Still for that read-out and setting: then `O=c1c2ccc(-c3ccc(Cl)cc3)cc2nnn1CCc1ccc(CN2CCC3(CCCCC3)CC2)cc1` [Example 1.30, 7-(4-chloro-phenyl)-3-{2-[4-(3-aza-spiro[5.5]undec-3-ylmethyl)-phenyl]-ethyl}-3H-benzo[d][1,2,3]triazin-4-one], with 165 to 166 °C; and `O=c1c2ccc(-c3ccc(Cl)cc3)cc2ccn1CCc1ccc(CN2CCCC2)cc1` [Example 1.31, 6-(4-chloro-phenyl)-2-[2-(4-pyrrolidin-1-ylmethyl-phenyl)-ethyl]-2H-isoquinolin-1-one], with 136 to 137 °C.
The compound `CCN(CC)Cc1ccc(CCNC(=O)c2ccc(-c3ccc(OC)cc3)cc2)cc1` [Example 2.4, 4′-methoxy-biphenyl-4-carboxylic acid-[2-(4-diethylaminomethyl-phenyl)-ethyl]-amide] had a pIC50 on hMCH-1R of 8.46.
The same measure, in the same setting: then `Cc1ccc(C2CCN(C(=O)NCCc3ccc(CN4CCCC4)cc3)CC2)cc1` [Example 2.12, 4-methylphenyl-piperidine-1-carboxylic acid-[2-(4-pyrrolidin-1-ylmethyl-phenyl)-ethyl]-amide], with 7.52.
The compound `CN1CCN(c2ccc(CCNC(=O)c3ccc(-c4ccc(Cl)cc4)cc3)cn2)CC1` [Example 2.50, 4′-chloro-biphenyl-4-carboxylic acid-{2-[6-(4-methyl-piperazin-1-yl)-pyridin-3-yl]-ethyl}-amide] registered a melting point of 211 to 213 °C.
On the same count and under the same terms, then `CN1CCN(C(=O)c2ccc(CCNC(=O)c3ccc(-c4ccc(Cl)cc4)cc3)cc2)CC1` [Example 2.51, 4′-chloro-biphenyl-4-carboxylic acid-{2-[4-(4-methyl-piperazine-1-carbonyl)-phenyl]-ethyl}-amide], with 217 to 218 °C.

(Values after patent publication US20040242572A1 (Boehringer Ingelheim International GmbH, priority 2002, published 2004).)
